Values quoted from earlier work in PMC5611894 (Journal of Alzheimer's Disease, 2017).

Experiments:
Aβ42 oligomers = settings: SPR equilibrium binding, Aβ42 oligomers immobilized on chip
Aβ42 monomers = settings: SPR equilibrium binding, Aβ42 monomers immobilized on chip

CC[C@]12C=CCN3CC[C@]4(C(=C(C(=O)OC)C1)Nc1ccccc14)[C@@H]32 [tabersonine]
Kd (Aβ42 oligomers): 535 µM
Kd (Aβ42 monomers): 69 µM
